Experimental data published in patent US6360743B1, “System for dispensing pharmaceutical active compounds” (AB Astra, priority 1992, dated 2002).

Assays:
[1] = Absolute systemic availability and lung deposition of inhaled budesonide (plasma LC-MS); type: in vivo, healthy subjects; details: for Cmax / Tmax: human, plasma, inhaled or intranasal, 1 mg, 1 mg inhaled; for absolute systemic availability (geometric mean): 1 mg as five inhalations of 200 micrograms, vs 0.5 mg intravenously; for amount deposited and absorbed in the lung (geometric mean, range): calculated assuming 13% availability of swallowed budesonide
Description: In order to determine the absolute systemic availability and the amount of budesonide deposited and absorbed in the lung after inhalation via TURBUHALER and via an MDI, 24 healthy subjects were given budesonide 1 mg as five inhalations of 200 micrograms each, via TURBUHALER inhaler or via MDI, and 0.5 mg intravenously, on separate study days. Budesonide levels were determined in plasma by a LC-MS method. The amount of budesonide absorbed in the lung was calculated on the assumption of an availability of swallowed budesonide of 13%. Furthermore, absorption in the lung was calculated in 13 of the subjects after inhalation with concomitant oral dosing of charcoal to prevent absorption of budesonide from the gastrointestinal track. There was good conformity between the two modes of calculation.

[2] = generally regarded; cited from earlier work

| Structure (SMILES) | lung deposition from TURBUHALER relative to MDI ([1]; TURBUHALER versus MDI) | Cmax ([1]; via MDI) [nM] | Tmax ([1]; via MDI) [min] | Cmax ([1]; via TURBUHALER) [nM] | Tmax ([1]; via TURBUHALER) [min] | absolute systemic availability (geometric mean) ([1]; via MDI) [%] | amount deposited and absorbed in the lung (geometric mean, range) ([1]; via MDI) | absolute systemic availability (geometric mean) ([1]; via TURBUHALER) [%] | amount deposited and absorbed in the lung (geometric mean, range) ([1]; via TURBUHALER) | dose regarded as equipotent to 0.25 mg of terbutaline sulphate [2] [mg] |
| --- | --- | --- | --- | --- | --- | --- | --- | --- | --- | --- |
| CCCC1O[C@@H]2C[C@H]3[C@@H]4CCC5=CC(=O)C=C[C@]5(C)[C@H]4[C@@H](O)C[C@]3(C)[C@]2(C(=O)CO)O1 (stereo partly shown) [budesonide] | twice that from an MDI | 2.3 | 30 | 3.6 | 18 | 28 | 15% (3%-47%) | 38 | 32% (16%-59%) |  |
| CC(C)(C)NCC(O)c1ccc(O)c(CO)c1 (stereo not shown) [salbutamol] |  |  |  |  |  |  |  |  |  | 0.1 |
